According to patent US6172056A, “Pharmaceutical compositions and method for prophylaxis and therapy of radical-mediated cell damage” (Jenapharm GmbH & Co. KG, priority 1993, dated 2001):

Columns and labels:
[1] = system: lipid peroxidation (synaptosomal membrane fraction, Fenton's reagent); test: In vitro inhibition of lipid peroxidation, thiobarbituric acid test; assay type: biochemical; details: 30 min at 37° C.
[2] = system: LDL, isolated from human whole blood; test: In vitro inhibition of LDL oxidation (Esterbauer et al), CuSO4-induced; details: 5 μmol test compound, 10 μmol CuSO4
[3] = target: T1, estrogen receptor (Oryctolagus cuniculus, UniProt G1SML6); test: Estrogen receptor binding, competitive with 3H-ethinyl estradiol in uterine cytosol; details: RBA relative to 17β-estradiol, infantile rabbit uterine cytosol, 0° C.
T1 construct: in uterine cytosol of the infantile rabbit; from tissue; host or cells: uterine cytosol of infantile rabbit
T1 sequence (G1SML6 1-598): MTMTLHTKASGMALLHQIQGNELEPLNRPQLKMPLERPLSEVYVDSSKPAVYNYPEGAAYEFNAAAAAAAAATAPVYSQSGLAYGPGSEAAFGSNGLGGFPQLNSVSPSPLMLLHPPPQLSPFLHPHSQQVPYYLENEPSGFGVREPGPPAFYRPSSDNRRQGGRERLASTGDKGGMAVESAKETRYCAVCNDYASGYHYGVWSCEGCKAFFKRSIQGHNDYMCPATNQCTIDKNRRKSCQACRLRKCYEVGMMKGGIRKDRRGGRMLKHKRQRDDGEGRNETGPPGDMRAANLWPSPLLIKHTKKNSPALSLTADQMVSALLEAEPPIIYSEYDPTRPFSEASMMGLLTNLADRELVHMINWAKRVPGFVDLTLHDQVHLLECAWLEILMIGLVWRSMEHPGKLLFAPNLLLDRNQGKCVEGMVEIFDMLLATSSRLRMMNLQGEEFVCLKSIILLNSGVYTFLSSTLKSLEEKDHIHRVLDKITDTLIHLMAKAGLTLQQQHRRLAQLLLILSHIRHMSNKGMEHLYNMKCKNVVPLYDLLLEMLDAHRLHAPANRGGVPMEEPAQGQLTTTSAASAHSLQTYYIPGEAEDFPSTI
Procedure: Statements about estrogen affinity are made by measuring the estrogen receptor binding.
Measuring the estrogen receptor binding is done by competitive binding of the ^3 H-labelled synthetic estrogen ethinyl estradiol and of the compounds to be tested in uterine cytosol of the infantile rabbit at 0° C. Reaction equilibrium and receptor saturation are the goal.
With the statement about the RBA values, the estrogen receptor affinity of the particular compound is characterized; taking into account certain prerequisites for in vitro investigations (such as a free 30H group), it is a measure for estrogen affinity (again, see Table 1).

[4] = system: peroxidation; details: literature statement; cited from earlier work

Compound	IC50 [1]	LDL oxidation inhibition (prolongation of the lag phase in min) [2]	Relative binding affinity to estrogen receptor [3]	Inhibition of peroxidation in vitro and in vivo [4]
C[C@]12CC[C@@H]3c4ccc(O)cc4CC[C@H]3[C@@H]1CC[C@@]21CO1 [3-Hydroxy-1,3,5(10)-estratriene-17S-spirooxirane]	4.11 µM	170 min	–	–
C[C@]12CC=C3c4ccc(O)cc4CC[C@H]3[C@@H]1CC[C@@]21CO1 [3-Hydroxy-1,3,5(10),9(11)-estratetraene-17S-spirooxirane]	0.81 µM	210 min	–	–
C[C@]12CCC3=C(CCc4cc(O)ccc43)[C@@H]1CC[C@@H]2O [8-Dehydroestradiol]	1 µM	120 min	59.6%	–
C[C@]12CC=C3c4ccc(O)cc4CC[C@H]3[C@@H]1C[C@@H](O)[C@@H]2O [9(11)-dehydroestriol]	10.6 µM	–	7.5%	–
C[C@]12CCC3=C(CCc4cc(O)ccc43)[C@@]13C[C@H]3C[C@@H]2O [14α,15α-Methylene-8-dehydroestradiol]	0.9 µM	–	–	–
C[C@]12CC[C@@H]3c4ccc(O)cc4CC[C@H]3[C@@H]1CC[C@H]2O [17α-Estradiol]	8.9 µM	–	–	–
C[C@@]12CC[C@H]3c4ccc(O)cc4CC[C@@H]3[C@H]1CC[C@H]2O [ent-Estradiol]	8.8 µM	120 min	–	–
C[C@]12CCC3=C(CCc4cc(O)ccc43)[C@@H]1CC[C@H]2O [8-Dehydro-17α-estradiol]	4.1 µM	–	–	–
C[C@]12CC[C@@H]3c4ccc(O)cc4CC[C@H]3[C@@H]1CCC2=O [estrone]	–	–	–	inhibit peroxidation in vitro and in vivo
C[C@]12CCc3c(ccc4cc(O)ccc34)[C@@H]1CC[C@H]2O [6,8-Didehydro-17α-estradiol]	5.1 µM	–	–	–
C[C@]12CC[C@@H]3c4cc(O)c(O)cc4CC[C@H]3[C@@H]1CC[C@@H]2O [2-hydroxyestradiol]	–	–	–	inhibit peroxidation in vitro and in vivo
C[C@]12CC[C@@H]3c4ccc(O)cc4CC[C@H]3[C@@]13C[C@H]3C[C@@H]2O [14α,15α-Methylene estradiol]	5 to 10 µM	–	–	–
C[C@]12CC[C@@H]3c4ccc(O)cc4CC[C@H]3[C@@H]1CC[C@@H]2O [17β-Estradiol, reference compound]	12.4 µM	110 min	–	inhibit peroxidation in vitro and in vivo
Cc1c(C)c2c(c(C)c1O)CCC(C)(CN1CCN(c3cc(N4CCCC4)nc(N4CCCC4)n3)CC1)O2 (stereo not shown) [Compound U-78517F, reference compound]	1.8 µM	70 min	–	–
Vitamin E [reference compound]	132 µM	–	–	–
COc1cc2c(cc1O)[C@H]1CC[C@]3(C)[C@@H](O)CC[C@H]3[C@@H]1CC2 [2-Hydroxyestradiol-3-methyl ether]	3.2 µM	–	–	–
C[C@]12CC[C@@H]3c4ccc(O)cc4C=C[C@H]3[C@@H]1C[C@@H](O)[C@@H]2O [6-Dehydroestriol]	45.6 µM	–	7.9%	–
C[C@]12CCC3=C(CCc4cc(O)ccc43)[C@]13C[C@@H]3C[C@@H]2O [14β,15β-Methylene-8 dehydroestradiol, 14β,15β-methylene-8-dehydroestradiol]	1.9 µM	–	–	–
CC(CO)[C@H]1CC[C@H]2[C@@H]3CCc4cc(O)ccc4[C@H]3CC[C@]12C (stereo partly shown) [20-hydroxymethyl-3-hydroxy-19-norpregna-1,3,5(10)-triene]	14.4 µM	–	22.5%	–
C[C@]12CC[C@@H]3c4ccc(O)cc4CC[C@H]3[C@@H]1C[C@@H](O)[C@@H]2O [Estriol, reference compound]	122 µM	45 min	10.3%	inhibit peroxidation in vitro and in vivo
